Experimental findings from ChEMBL document CHEMBL1142012, “Synthesis and SAR of 4-(3-hydroxyphenylamino)pyrrolo[2,1-f][1,2,4]triazine based VEGFR-2 kinase inhibitors” (Bioorg Med Chem Lett, 2005) are described below.

Data set [1] has as its target Vascular endothelial growth factor receptor 2 (Homo sapiens, UniProt P35968). Put plainly: Inhibitory concentration against Vascular endothelial growth factor receptor 2.
Data set [2] concerns Cell line. Nature of the data set: Inhibitory concentration against Human umbilical vein endothelial cells stimulated by VEGF was determined. It is filed as functional, cell-based.
The species entered for the next data set is Homo sapiens. The following applies: Liver, Microsome.
Data set [3] in a line: Glucuronidation in human liver microsomes was determined. It is filed as ADME, Microsome. On the technique in general: Liver microsomes are vesicles of endoplasmic reticulum, rich in cytochrome P450 enzymes.
The nature of data set [4]: Area under the concentration time curve (0-4 hr) value in mouse after 50 mg/kg oral dosage. It is filed as ADME, organism-based. Further details: time < 4 hr, dose 50 mg/kg, route oral; call rule not given here. The following applies: in vivo.
A short description of data set [5]: Maximum plasma concentration in mouse after 50 mg/kg oral dosage. It is filed as ADME, organism-based. Set-up: dose 50 mg/kg, route oral.
For data set [6], the system named is Cell line. Put plainly: Inhibitory concentration against Human umbilical vein endothelial cells stimulated by VEGF was determined;NA= not active. It is filed as functional, cell-based.

SMILES strings stand for the structures.

Chain of Vascular endothelial growth factor receptor 2 (P35968 whole entry): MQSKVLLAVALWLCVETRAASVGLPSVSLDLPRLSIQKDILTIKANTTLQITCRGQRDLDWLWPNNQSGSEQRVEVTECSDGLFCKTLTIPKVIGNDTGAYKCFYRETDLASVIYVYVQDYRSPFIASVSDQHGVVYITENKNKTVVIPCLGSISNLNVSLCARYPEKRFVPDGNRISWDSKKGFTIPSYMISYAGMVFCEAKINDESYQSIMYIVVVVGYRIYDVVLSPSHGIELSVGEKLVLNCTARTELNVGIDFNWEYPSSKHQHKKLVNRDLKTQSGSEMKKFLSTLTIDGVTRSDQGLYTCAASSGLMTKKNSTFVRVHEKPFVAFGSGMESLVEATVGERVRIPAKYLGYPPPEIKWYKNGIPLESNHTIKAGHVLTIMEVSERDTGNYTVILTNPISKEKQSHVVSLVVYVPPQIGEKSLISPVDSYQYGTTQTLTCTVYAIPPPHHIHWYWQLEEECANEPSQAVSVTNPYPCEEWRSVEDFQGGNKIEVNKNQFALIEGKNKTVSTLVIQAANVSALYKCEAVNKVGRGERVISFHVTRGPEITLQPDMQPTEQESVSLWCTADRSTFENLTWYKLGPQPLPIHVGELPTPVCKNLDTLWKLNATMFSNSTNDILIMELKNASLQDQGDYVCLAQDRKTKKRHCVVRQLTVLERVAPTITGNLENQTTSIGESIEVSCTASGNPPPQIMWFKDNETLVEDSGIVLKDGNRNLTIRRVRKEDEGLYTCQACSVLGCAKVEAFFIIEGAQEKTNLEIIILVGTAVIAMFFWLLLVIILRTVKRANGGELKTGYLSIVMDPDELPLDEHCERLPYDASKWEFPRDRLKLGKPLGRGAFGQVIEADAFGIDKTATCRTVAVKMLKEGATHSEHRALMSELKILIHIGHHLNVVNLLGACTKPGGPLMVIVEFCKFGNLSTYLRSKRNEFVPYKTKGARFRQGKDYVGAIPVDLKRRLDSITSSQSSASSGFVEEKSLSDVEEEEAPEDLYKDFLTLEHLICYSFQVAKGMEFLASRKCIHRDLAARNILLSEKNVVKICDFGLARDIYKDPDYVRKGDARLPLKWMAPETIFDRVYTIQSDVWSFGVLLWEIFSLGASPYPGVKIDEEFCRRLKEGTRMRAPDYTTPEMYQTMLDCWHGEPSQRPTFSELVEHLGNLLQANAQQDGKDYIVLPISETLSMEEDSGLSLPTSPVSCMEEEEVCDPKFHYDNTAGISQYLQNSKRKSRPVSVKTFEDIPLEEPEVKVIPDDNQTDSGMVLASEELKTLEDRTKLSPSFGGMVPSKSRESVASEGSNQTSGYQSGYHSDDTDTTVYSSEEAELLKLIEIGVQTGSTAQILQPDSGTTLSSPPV

By IC50 is commonly meant the concentration that gives 50% inhibition. High values mean lower potency, low ones higher potency. For `COC(=O)c1cn2ncnc(Nc3cccc(O)c3)c2c1C`, the IC50 in data set [1] stood at 0.061 µM.
Regarding `COC(=O)c1cn2ncnc(Nc3ccc(C)c(O)c3)c2c1C`, inhibition in data set [1] was half-maximal at 0.01 µM (IC50).
On to `Cc1ccc(Nc2ncnn3cc(OCCCN4CCCCC4)c(C(C)C)c23)cc1O`, for which the IC50 in the data set on Cell line [2] was found to be 0.001 µM; in data set [1], 0.004 µM. The molecule also came in with a Glucuronidation in the data set filed under Homo sapiens of 0.03 nmol/min/mg.
Molecule `Cc1ccc(Nc2ncnn3cc(C(=O)NCCCN4CCCC4)c(C)c23)cc1O` showed a Glucuronidation in data set [3] of 0.01 nmol/min/mg. In addition, the 50% inhibitory concentration (IC50) with Cell line [2] stood at 0.01 µM; in data set [1] it was 0.04 µM.
For the molecule `COC(=O)c1cn2ncnc(Nc3ccc(C(F)(F)F)c(O)c3)c2c1C`, the IC50 in data set [1] was 0.37 µM.
Consider `CCOC(=O)c1cn2ncnc(Nc3ccc(C)c(O)c3)c2c1C(C)C`, for which the IC50 in the data set on Cell line [2] is 0.004 µM; in data set [1], 0.014 µM.
Consider `COC(=O)c1cn2ncnc(Nc3ccc(C(C)C)c(O)c3)c2c1C`, for which, in data set [1], the midpoint of inhibition, the IC50, lay at 0.38 µM.
With `Cc1ccc(Nc2ncnn3cc(NC(=O)OCCCN4CCCCC4)c(C(C)C)c23)cc1O`, the IC50 in the data set on Cell line [2] stood at 0.001 µM; in data set [1], 0.005 µM. This molecule also yielded a Glucuronidation in the data set listed under Homo sapiens of 0.08 nmol/min/mg.
The molecule `COC(=O)c1cn2ncnc(Nc3ccc(Br)c(O)c3)c2c1C` gave an IC50 in data set [1] of 0.033 µM.
As usually defined, the AUC(0-t) is the area under the concentration-time curve up to a stated or last time point. Usually Cmax stands for the highest concentration seen after dosing. Take `Cc1ccc(Nc2ncnn3cc(C(=O)NCCCN4CCCC4)c(C(C)C)c23)cc1O`: the AUC(0-t) at 4 h in data set [4] was determined as 267 nM·h. Moreover, in data set [5], the Cmax came out at 0.166 µM. Besides, the figures for the concentration for half-maximal inhibition (IC50) (in the data set with Cell line [2]; in data set [1]) were 0.008 µM and 0.018 µM, respectively. In the data set filed under Homo sapiens, this molecule came in with a Glucuronidation of 0.02 nmol/min/mg.
Consider `COCCCNC(=O)c1cn2ncnc(Nc3ccc(C)c(O)c3)c2c1C`, for which the Glucuronidation in the data set listed under Homo sapiens is 0.16 nmol/min/mg. Further, in data set [1], the IC50 was determined as 0.15 µM.
In the case of `CCCc1c(C(=O)OCC)cn2ncnc(Nc3ccc(C)c(O)c3)c12`, the IC50 in the data set on Cell line [2] was found to be 0.006 µM; in data set [1], 0.003 µM.
On to `COC(=O)c1cn2ncnc(Nc3ccc(C)c(O)c3)c2c1C(C)(C)C`, for which the IC50 entry in the data set with Cell line [6] was “Not Active”; in data set [1], 0.31 µM.
For `Cc1ccc(Nc2ncnn3cc(C(=O)NCCCN4CCOCC4)c(C)c23)cc1O`, the results for the IC50 (in the data set on Cell line [2]; in data set [1]) were 0.003 µM and 0.052 µM, respectively. For the same molecule, the Glucuronidation in the data set listed under Homo sapiens stood at 0.01 nmol/min/mg.
In the case of `CCCc1c(C(=O)NCCCN2CCCC2)cn2ncnc(Nc3ccc(C)c(O)c3)c12`, the IC50 with Cell line [2] came to 0.035 µM; in data set [1], 0.09 µM.
For the molecule `CCOC(=O)c1cn2ncnc(Nc3ccc(C)c(O)c3)c2c1OCC`, the values for the IC50 (in the data set with Cell line [2]; in data set [1]) were 0.04 µM and 0.064 µM, respectively.
With `CCc1ccc(Nc2ncnn3cc(C(=O)OC)c(C)c23)cc1O`, in data set [1], half-maximal inhibition (IC50) was put at 0.055 µM.
On to `Cc1ccc(Nc2ncnn3cc(NC(=O)OCCCn4nccn4)c(C(C)C)c23)cc1O`, for which, in the data set listed under Homo sapiens, the Glucuronidation amounted to 0.9 nmol/min/mg. Moreover, inhibition in data set [1] was half-maximal at 0.007 µM (IC50).
For `Cc1ccc(Nc2ncnn3cc(C(=O)NCCCn4nccn4)c(C)c23)cc1O`, the half-inhibitory concentration (IC50) with Cell line [2] turned out to be 0.02 µM; in data set [1] it was 0.03 µM. In addition, the Glucuronidation in the data set filed under Homo sapiens stood at 0.21 nmol/min/mg.
As to `Cc1ccc(Nc2ncnn3cc(NC(=O)NCCCN4CCCCC4)c(C(C)C)c23)cc1O`, the IC50 (in the data set on Cell line [2]; in data set [1]) was 0.005 µM in each case. Besides, the Glucuronidation in the data set listed under Homo sapiens was 0.04 nmol/min/mg.
In data set [1], `CCCc1ccc(Nc2ncnn3cc(C(=O)OC)c(C)c23)cc1O` displayed a half-inhibitory concentration (IC50) of 0.19 µM.
